pIC50: −log10 of the molar value.
Test system: 616215-338-R-J1-PDC complex spheroid growth, % test/control
Experiment: Anticancer human tumor 616215-338-R-J1-PDC patient-derived colon adenocarcinoma cell line growth inhibition [Asc]
Details: for pIC50: curve of first compound; for viability, T/C: stronger effect = lower value
Procedure, shortened: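 Complex solid-tumor spheroids incorporating human endothelial and mesenchymal stem cells received single agents or combinations over half-log dilution ranges anchored to clinical Cmax.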

[1] = second compound 0.1 µM, first compound 0.00316 µM
[2] = second compound 0.1 µM, first compound 0.01 µM
[3] = second compound 0.1 µM, first compound 0.0316 µM
[4] = second compound 0.1 µM, first compound 0.1 µM
[5] = second compound 0.1 µM, first compound 0.316 µM
[6] = second compound 0.1 µM, first compound 1 µM
[7] = second compound 0.316 µM, first compound 0.00316 µM
[8] = second compound 0.316 µM, first compound 0.01 µM
[9] = second compound 0.316 µM, first compound 0.0316 µM
[10] = second compound 0.316 µM, first compound 0.1 µM
[11] = second compound 0.316 µM, first compound 0.316 µM
[12] = second compound 0.316 µM, first compound 1 µM
[13] = second compound 1 µM, first compound 0.00316 µM
[14] = second compound 1 µM, first compound 0.01 µM
[15] = second compound 1 µM, first compound 0.0316 µM
[16] = second compound 1 µM, first compound 0.1 µM
[17] = second compound 1 µM, first compound 0.316 µM
[18] = second compound 1 µM, first compound 1 µM
[19] = second compound 3.16 µM, first compound 0.00316 µM
[20] = second compound 3.16 µM, first compound 0.01 µM
[21] = second compound 3.16 µM, first compound 0.0316 µM
[22] = second compound 3.16 µM, first compound 0.1 µM
[23] = second compound 3.16 µM, first compound 0.316 µM
[24] = second compound 3.16 µM, first compound 1 µM
[25] = second compound 10 µM, first compound 0.00316 µM
[26] = second compound 10 µM, first compound 0.01 µM
[27] = second compound 10 µM, first compound 0.0316 µM
[28] = second compound 10 µM, first compound 0.1 µM
[29] = second compound 10 µM, first compound 0.316 µM
[30] = second compound 10 µM, first compound 1 µM
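Further: spheroids exposed to agents for seven days before readout.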
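Wherever viability, T/C is given: 100% = DMSO vehicle control viability.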

SMILES	pIC50 (second compound 0.1 µM)	pIC50 (second compound 0.316 µM)	pIC50 (second compound 1 µM)	pIC50 (second compound 3.16 µM)	pIC50 (second compound 10 µM)	viability, T/C [1] [%]	viability, T/C [2] [%]	viability, T/C [3] [%]	viability, T/C [4] [%]	viability, T/C [5] [%]	viability, T/C [6] [%]	viability, T/C [7] [%]	viability, T/C [9] [%]	viability, T/C [10] [%]	viability, T/C [15] [%]	viability, T/C [16] [%]	viability, T/C [21] [%]	viability, T/C [22] [%]	viability, T/C [27] [%]	viability, T/C [28] [%]	other results
CCN1CCN(Cc2ccc(Nc3ncc(F)c(-c4cc(F)c5nc(C)n(C(C)C)c5c4)n3)nc2)CC1 + Cc1c(S(C)(=O)=O)c(-c2cc(F)cc(N3CCN(c4ccc(NS(=O)(=O)c5ccc(NC(CCN6CCC(C(=O)OCCCP(=O)(O)O)CC6)CSc6ccccc6)c(S(=O)(=O)C(F)(F)F)c5)cc4)CC3)c2)c(-c2ccc(Cl)cc2)n1C(C)C	< 6.00	< 6.00	< 6.00	> 8.50	> 8.50	92.5	89.3	92.6	96.5	100	129	86	93.2	99.7	77.9	78	58.6	69	34	39.4	viability, T/C [8]: 84.9%; viability, T/C [11]: 109%; viability, T/C [12]: 130%; viability, T/C [13]: 68.5%; viability, T/C [14]: 75.8%; viability, T/C [17]: 99.3%; viability, T/C [18]: 95.9%; viability, T/C [19]: 45.9%; viability, T/C [20]: 52.7%; viability, T/C [23]: 86.1%; viability, T/C [24]: 54.8%; viability, T/C [25]: 30%; viability, T/C [26]: 32.9%; viability, T/C [29]: 67.7%; viability, T/C [30]: 24.7%
Cn1ncnc1[C@H]1c2n[nH]c(=O)c3cc(F)cc(c23)N[C@@H]1c1ccc(F)cc1 + Cc1c(S(C)(=O)=O)c(-c2cc(F)cc(N3CCN(c4ccc(NS(=O)(=O)c5ccc(NC(CCN6CCC(C(=O)OCCCP(=O)(O)O)CC6)CSc6ccccc6)c(S(=O)(=O)C(F)(F)F)c5)cc4)CC3)c2)c(-c2ccc(Cl)cc2)n1C(C)C	< 7.00	< 7.00	7.81	> 9.50	> 9.50	85.2	90.1	86.2	84.9			90.8	76.6	69.3	42.7	32.9	9.58	4.09	2.52	1.65	viability, T/C (second compound 0.1 µM, first compound 0.000316 µM): 88.5%; viability, T/C (second compound 0.1 µM, first compound 0.001 µM): 104%; viability, T/C (second compound 0.316 µM, first compound 0.000316 µM): 86.4%; viability, T/C (second compound 0.316 µM, first compound 0.001 µM): 87.6%; viability, T/C [8]: 85.8%; viability, T/C (second compound 1 µM, first compound 0.000316 µM): 66.9%; viability, T/C (second compound 1 µM, first compound 0.001 µM): 67.8%; viability, T/C [13]: 63.7%; viability, T/C [14]: 54%; viability, T/C (second compound 3.16 µM, first compound 0.000316 µM): 38.9%; viability, T/C (second compound 3.16 µM, first compound 0.001 µM): 39%; viability, T/C [19]: 27.3%; viability, T/C [20]: 15.8%; viability, T/C (second compound 10 µM, first compound 0.000316 µM): 25.9%; viability, T/C (second compound 10 µM, first compound 0.001 µM): 20%; viability, T/C [25]: 10.4%; viability, T/C [26]: 4.53%
O=C(c1cc(Cc2n[nH]c(=O)c3ccccc23)ccc1F)N1CCN(C(=O)C2CC2)CC1 + Cc1c(S(C)(=O)=O)c(-c2cc(F)cc(N3CCN(c4ccc(NS(=O)(=O)c5ccc(NC(CCN6CCC(C(=O)OCCCP(=O)(O)O)CC6)CSc6ccccc6)c(S(=O)(=O)C(F)(F)F)c5)cc4)CC3)c2)c(-c2ccc(Cl)cc2)n1C(C)C	< 5.00	5.17	6.12	> 7.50	> 7.50			95.5	96	92.5	92		88.8	90	72.7	67.6	34	30.4	20.7	18.4	viability, T/C (second compound 0.1 µM, first compound 3.16 µM): 89.1%; viability, T/C (second compound 0.1 µM, first compound 10 µM): 78.8%; viability, T/C [11]: 85.4%; viability, T/C [12]: 86.5%; viability, T/C (second compound 0.316 µM, first compound 3.16 µM): 66.6%; viability, T/C (second compound 0.316 µM, first compound 10 µM): 41.4%; viability, T/C [17]: 59%; viability, T/C [18]: 49%; viability, T/C (second compound 1 µM, first compound 3.16 µM): 26.3%; viability, T/C (second compound 1 µM, first compound 10 µM): 10.9%; viability, T/C [23]: 25.3%; viability, T/C [24]: 17.2%; viability, T/C (second compound 3.16 µM, first compound 3.16 µM): 3.59%; viability, T/C (second compound 3.16 µM, first compound 10 µM): 2.49%; viability, T/C [29]: 11.2%; viability, T/C [30]: 3.83%; viability, T/C (second compound 10 µM, first compound 3.16 µM): 1.31%; viability, T/C (second compound 10 µM, first compound 10 µM): 1.84%
O=C(c1ccc(F)c(F)c1Nc1ccc(I)cc1F)N1CC(O)([C@@H]2CCCCN2)C1 + Cc1c(S(C)(=O)=O)c(-c2cc(F)cc(N3CCN(c4ccc(NS(=O)(=O)c5ccc(NC(CCN6CCC(C(=O)OCCCP(=O)(O)O)CC6)CSc6ccccc6)c(S(=O)(=O)C(F)(F)F)c5)cc4)CC3)c2)c(-c2ccc(Cl)cc2)n1C(C)C	7.19	7.23	7.42	> 8.50	> 8.50	92.4	91.7	79.5	32	1.51	0.8	92.8	79.3	24.4	56	17.4	27.3	2.89	14.2	0.19	viability, T/C [8]: 91.9%; viability, T/C [11]: 0.48%; viability, T/C [12]: 0.95%; viability, T/C [13]: 68%; viability, T/C [14]: 70.4%; viability, T/C [17]: 0.25%; viability, T/C [18]: 2.24%; viability, T/C [19]: 39.5%; viability, T/C [20]: 34.9%; viability, T/C [23]: 0.11%; viability, T/C [24]: 0.23%; viability, T/C [25]: 25.1%; viability, T/C [26]: 21.5%; viability, T/C [29]: 0.18%; viability, T/C [30]: 0.36%
